According to US11584714B2 (priority 2018, dated 2023):

What was measured:
Thrombin = Thrombin (Homo sapiens (Human), UniProt P00734); assay: Thrombin inhibition (Ki); type: biochemical; details: for Ki: read-out: Thrombin Ki
MASP-2 = MASP-2 (Homo sapiens (Human), UniProt O00187); assay: MASP-2 inhibition (Ki); type: biochemical
α-chymotrypsin = α-chymotrypsin (Bos taurus (Bovine), UniProt P00766, DEL14-15/DEL147-148); details: cited from earlier work

MASP-2, sequence (O00187 16-686): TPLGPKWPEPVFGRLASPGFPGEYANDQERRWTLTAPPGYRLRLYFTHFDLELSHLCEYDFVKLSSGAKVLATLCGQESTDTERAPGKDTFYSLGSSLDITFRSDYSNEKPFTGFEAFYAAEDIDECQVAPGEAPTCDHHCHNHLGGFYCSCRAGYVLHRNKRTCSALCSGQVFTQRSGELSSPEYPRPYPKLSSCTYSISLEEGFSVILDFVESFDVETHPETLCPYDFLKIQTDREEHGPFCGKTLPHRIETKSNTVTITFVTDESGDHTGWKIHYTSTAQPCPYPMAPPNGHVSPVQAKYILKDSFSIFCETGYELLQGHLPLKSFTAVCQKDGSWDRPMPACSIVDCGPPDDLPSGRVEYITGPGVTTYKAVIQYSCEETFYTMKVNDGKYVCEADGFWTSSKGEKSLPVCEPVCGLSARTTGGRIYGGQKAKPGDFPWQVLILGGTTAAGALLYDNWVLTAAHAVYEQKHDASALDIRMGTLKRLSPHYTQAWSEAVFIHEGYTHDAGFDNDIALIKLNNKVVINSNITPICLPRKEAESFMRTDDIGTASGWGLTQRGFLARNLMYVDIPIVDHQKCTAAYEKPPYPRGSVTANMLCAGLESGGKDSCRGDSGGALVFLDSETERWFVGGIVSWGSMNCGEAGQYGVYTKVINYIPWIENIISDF

Compound: Cc1ccc(S(=O)(=O)n2nc(OC(=O)c3ccco3)cc2N)cc1 [compound 39]
- Ki (Thrombin): 10 to 25 µM
- Ki (MASP-2): < 10 µM

Compound: CN(C)C(=S)Nc1ccccc1C(=O)O [compound 25]
- Thrombin Ki (μM) (Thrombin): No activity
- Ki (MASP-2): 25 to 100 µM

Compound: Cc1cccc2c(=O)oc(-c3ccccc3Cl)nc12 [compound 18]
- Ki (Thrombin): < 10 µM
- Ki (MASP-2): < 10 µM

Compound: O=C(Oc1ccc([N+](=O)[O-])cc1)c1ccc(Br)o1 [compound 20]
- Thrombin Ki (μM) (Thrombin): No Activity
- Ki (MASP-2): < 10 µM

Compound: Nc1cc(OC(=O)c2ccco2)nn1S(=O)(=O)c1ccc(F)cc1 [compound 44]
- Ki (Thrombin): 25 to 100 µM
- Ki (MASP-2): < 10 µM

Compound: Cc1c(C(=O)Nc2ccccc2C(=O)O)cccc1[N+](=O)[O-] [compound 9]
- Ki (Thrombin): < 10 µM
- Ki (MASP-2): < 10 µM

Compound: Cc1ccc(/C=C2\N=C(c3ccccc3F)OC2=O)o1 [compound 2]
- Ki (Thrombin): 25 to 100 µM
- Ki (MASP-2): < 10 µM

Compound: Cc1cc(=O)oc2cc(OC(=O)c3ccco3)ccc12 [compound 12]
- Ki (Thrombin): < 10 µM
- Ki (MASP-2): < 10 µM

Compound: COc1cc(/C=N/NC(=O)Cc2nnc(N)s2)ccc1OC(=O)c1ccco1 [compound 31]
- Thrombin Ki (μM) (Thrombin): No activity
- Ki (MASP-2): < 10 µM

Compound: O=C(NNC(=O)c1cc2ccccc2cc1O)c1ccco1 [compound 7]
- Ki (Thrombin): < 10 µM
- Ki (MASP-2): < 10 µM

Compound: CC(=O)c1ccc2c(c1)C1C=CCC1C(C(=O)O)N2 (stereo not shown) [compound 30]
- Thrombin Ki (μM) (Thrombin): No activity
- Ki (MASP-2): 25 to 100 µM

Compound: COc1ccccc1C1=N/C(=C\c2cc(OC)c(OC)c(OC)c2)C(=O)O1 [compound 4]
- Ki (Thrombin): 25 to 100 µM
- Ki (MASP-2): < 10 µM

Compound: O=C(c1cccc2ccccc12)n1cccn1 [compound 32]
- Thrombin Ki (μM) (Thrombin): No activity
- Ki (MASP-2): < 10 µM

Compound: Cc1ccccc1C1=N/C(=C\c2ccco2)C(=O)O1 [compound 1]
- Ki (Thrombin): < 10 µM
- Ki (MASP-2): < 10 µM

Compound: COc1cccc2c1NC(C(=O)O)C1CC=CC21 (stereo not shown) [compound 15]
- Thrombin Ki (μM) (Thrombin): No activity
- Ki (MASP-2): 25 to 100 µM

Compound: C/C=C/C=C/C(=O)Nc1ccccc1C(=O)O [compound 37]
- Thrombin Ki (μM) (Thrombin): No activity
- Ki (MASP-2): 25 to 100 µM

Compound: CC(=O)c1ccc(OC(=O)c2ccco2)cc1 [compound 41]
- Thrombin Ki (μM) (Thrombin): No activity
- Ki (MASP-2): < 10 µM

Compound: O=c1oc(-c2ccccc2[N+](=O)[O-])nc2ccccc12 [compound 14]
- Ki (Thrombin): < 10 µM
- Ki (MASP-2): < 10 µM

Compound: Cc1sc2nc(-c3ccccc3F)oc(=O)c2c1C [compound 42]
- Ki (Thrombin): 25 to 100 µM
- Ki (MASP-2): < 10 µM

Compound: O=C(Nc1nc[nH]n1)c1cccc(I)c1 [compound 36]
- Ki (Thrombin): 25 to 100 µM
- Ki (MASP-2): < 10 µM

Compound: COc1ccc(S(=O)(=O)n2nc(OC(=O)c3ccco3)cc2N)cc1 [compound 40]
- Ki (Thrombin): < 10 µM
- Ki (MASP-2): < 10 µM

Compound: O=c1oc(-c2ccco2)nc2scc(-c3cccs3)c12 [compound 19]
- Ki (Thrombin): 25 to 100 µM
- Ki (MASP-2): < 10 µM

Compound: MeO-Suc-Ala-Ala-ProboroPhe-OH
- Ki (α-chymotrypsin): 0.00016 µM

Compound: N=C(N)c1ccc2ccccc2c1 [compound 53]
- Ki (Thrombin): 10 to 25 µM
- Ki (MASP-2): < 10 µM

Compound: O=C(O)C1Nc2c(O)cc(Cl)c([N+](=O)[O-])c2C2C=CCC12 (stereo not shown) [compound 22]
- Thrombin Ki (μM) (Thrombin): No Activity
- Ki (MASP-2): 10 to 25 µM

Compound: O=C(Oc1cccc([N+](=O)[O-])c1)c1ccco1 [compound 27]
- Ki (Thrombin): 25 to 100 µM
- Ki (MASP-2): < 10 µM

Compound: COC(=O)c1cn(C(=O)c2cc(OC)cc(OC)c2)nc1N [compound 24]
- Ki (Thrombin): 10 to 25 µM
- Ki (MASP-2): < 10 µM

Compound: Nc1nc2ccccc2[nH]1 [compound 46]
- Thrombin Ki (μM) (Thrombin): No activity
- Ki (MASP-2): 25 to 100 µM

Compound: COc1ccc(/C=C2\N=C(c3ccccc3OC)OC2=O)cc1OC [compound 3]
- Ki (Thrombin): < 10 µM
- Ki (MASP-2): 25 to 100 µM

Compound: Cc1c(/N=C/c2ccc(OC(=O)c3ccccn3)cc2)c(=O)n(-c2ccccc2)n1C [compound 17]
- Ki (Thrombin): 25 to 100 µM
- Ki (MASP-2): < 10 µM

Compound: CN(C(=O)c1cc2ccccc2cc1C(=O)C(c1cccc2ccccc12)P(=O)(O)O)C1CCN(C(=O)c2ccccc2)CC1 (stereo not shown) [compound 51]
- Thrombin Ki (μM) (Thrombin): No activity
- Ki (MASP-2): 10 to 25 µM

Compound: N#Cc1ccc(OC(=O)c2ccc(Br)o2)cc1 [compound 45]
- Ki (Thrombin): 25 to 100 µM
- Ki (MASP-2): < 10 µM

Compound: CCOC(=O)c1ccc2c(c1)C1C=CCC1C(C(=O)O)N2 (stereo not shown) [compound 13]
- Thrombin Ki (μM) (Thrombin): No activity
- Ki (MASP-2): 25 to 100 µM

Compound: O=C(O)c1cc(N2N=C(C(F)(F)F)/C(=C\C=C\c3ccco3)C2=O)ccc1Cl [compound 16]
- Thrombin Ki (μM) (Thrombin): No activity
- Ki (MASP-2): 25 to 100 µM

Compound: O=C1NC(=S)NC(=O)C1=C/C=C/c1ccco1 [compound 29]
- Ki (Thrombin): 25 to 100 µM
- Ki (MASP-2): < 10 µM

Compound: N=C(N)c1ccc(N)cc1 [compound 47]
- Thrombin Ki (μM) (Thrombin): No activity
- Ki (MASP-2): 25 to 100 µM

Compound: O=C(O)c1ccc2c(c1)C1C=CCC1C(C(=O)O)N2 (stereo not shown) [compound 28]
- Thrombin Ki (μM) (Thrombin): No activity
- Ki (MASP-2): 25 to 100 µM
